Test results as given in patent publication US8415312B2, “Compound which is a nystatin derivative” (Biosergen AS, priority 2007, dated 2013).
Values after ≈ are worked out from the molar mass of the structure shown. Values joined by “and” are separate entries in the source; they are usually repeats but may differ in a detail not shown here. Equal values may be shown once.

Legend:
[1] = system: Candida albicans ATCC 14053; assay: Antifungal susceptibility study (1), broth microdilution MIC; format: cell-based; settings: lowest concentration preventing any visible growth, read at 48 hours, 35° C., RPMI 1640 pH 7.0
Procedure, shortened: (§1)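 Broth microdilution in test medium at pH 7.0 with two-fold compound dilutions (DMSO stocks diluted 50-fold into medium), inoculated with freshly grown yeast cultures. Plates were incubated without agitation at 35° C. for C. albicans or 25° C. for C. humicolus. MIC was taken as the concentration with no visible growth, read at 48 hours.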

[2] = system: Cryptococcus humicolus ATCC 9949; assay: as above; format: cell-based; settings: lowest concentration preventing any visible growth, read at 48 hours, 25° C., RPMI 1640 pH 7.0
Procedure, shortened: as §1

[3] = system: Aspergillus niger ATCC 16404; assay: as above; format: cell-based; settings: lowest concentration preventing any visible growth, read at 48 hours, 35° C., RPMI 1640 pH 7.0
Procedure, shortened: (§2)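 Broth microdilution was run at pH 7.0 with compounds diluted from DMSO solutions and mixed 1:1 with conidial inoculum. Spore suspensions were adjusted to OD530 0.09-0.11 for A. niger or 0.15-0.17 for F. oxysporum, then diluted 1:50. Plates were incubated at 35° C without agitation, and MIC was read at 48 hours as absence of visible growth.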

[4] = system: Fusarium oxysporum VKM F-140; assay: as above; format: cell-based; settings: lowest concentration preventing any visible growth, read at 48 hours, 35° C., RPMI 1640 pH 7.0
Procedure, shortened: as §2

human blood erythrocytes = assay: In vitro toxicity study, haemolysis (Table 10); format: cell-based; settings: for Haemolysis of human blood erythrocytes: individual blood samples # 1-3
[5] = system: yeasts and filamentous fungi (moulds); assay: Antifungal susceptibility study (1), overall comparison across the test organisms; format: cell-based; settings: Table 5 MICs
Procedure: The organisms used for susceptibility testing were: Candida albicans ATCC 14053, Cryptococcus humicolus ATCC 9949, Aspergillus niger ATCC 16404 and Fusarium oxysporum VKM F-140 (=CMI, IMI 90473). Organisms were stored on potato dextrose agar […] 50% glycerol solution at -70° C. For short-term storage, stock cultures were stored on agar […] 4° C. The cultures of yeasts were sub-cultured onto Sabouraud dextrose (SAB) agar and incubated for 24 hours at 35° C. (Candida albicans) or for 48 hours at 25° C. (Cryptococcus humicolus) to obtain a freshly grown pure culture. The cultures of moulds were sub-cultured onto potato dextrose agar and incubated for 7 days at 35° C. […] (Fusarium oxysporum) to ensure maximum sporulation. Sterile 96-well flat-bottomed microtitration plates were used for testing. 100 μl of diluted inocula were dispensed into each microdilution well containing 100 μl of the double dilutions of compounds. Drug-free and yeast/mould-free controls were included. Microdilution trays were incubated at 35° C. (Candida albicans and moulds) or 25° C. (Cryptococcus humicolus) without agitation and observed for the presence or absence of visible growth. […] Minimal inhibitory concentrations (MICs) were read at 48 hours.

erythrocytes = assay: In vitro toxicity study, haemolysis (Tables 11 and 12); format: cell-based, horse; settings: for Haemolysis of erythrocytes, Mean ± S.E.M.: 25 μM (Table 12); for Haemolysis of erythrocytes, Mean ± SE: 5 μg/mL (Table 11)
Procedure: The toxicity of various nystatin derivatives was tested at 2 and 5 μg/mL and at 25 μM.
Compounds were dissolved in DMSO at 5 mg/mL and 0.1 mL samples with different concentrations were prepared in DMSO. The samples were mixed with 0.9 mL PBS buffer containing 2.5% horse blood (PBS-HB; kept on ice) and incubated at 37° C. for 30 min without agitation.
Cells were pelleted by centrifugation at 5000 rpm for 5 min and haemolysis was evaluated by measuring OD545. 100% haemolysis was defined as the OD545 value obtained from a suspension of 2.5% horse blood in distilled water.

[6] = system: Candida albicans ATCC 10231; assay: Antifungal susceptibility study (2), MIC50 by OD490 growth; format: cell-based; settings: 50% growth inhibition from regression curve, M19 medium without NaCl, 30° C.
Procedure: The anti-fungal activity of several of the nystatin derivatives was further investigated. […] The anti-fungal activity of a number of the nystatin derivatives was therefore determined in a method which is designed to be more sensitive.
The test organism used for the further testing of polyene macrolide bioactivity was Candida albicans ATCC 10231, grown in 120 μl of standard M19 medium without NaCl (with an inoculum of 1000 cfu per well) and 30 μl of diluted polyene macrolide samples. The antibiotics were diluted in MeOH in series ensuring a spectrum of concentrations which yielded results ranging from complete growth inhibition to no inhibition of the test organism. The test organism cultures with antibiotic dilutions were incubated in 96-well microtiter plates at 30° C. without shaking, and growth was measured as OD490 after 12, 14 and 16 hours on a SpectraMax Plus microtiter plate reader. OD was plotted against antibiotic concentration, and MIC50 was estimated from the regression curve at 50% growth inhibition.

[7] = 25 μM, individual blood samples (Table 12)
[8] = 5 μg/mL, individual blood samples # 1-3 (Table 11)

Row | SMILES | MIC Candida albicans ATCC 14053 [1] | MIC Cryptococcus humicolus ATCC 9949 [2] | MIC Aspergillus niger ATCC 16404 [3] | MIC Fusarium oxysporum VKM F-140 [4] | Haemolysis of human blood erythrocytes, MEAN ± SE (human blood erythrocytes; 2 μg/mL) | Haemolysis of human blood erythrocytes (human blood erythrocytes; 2 μg/mL) | Haemolysis of human blood erythrocytes, MEAN ± SE (human blood erythrocytes; 5 μg/mL) | Haemolysis of human blood erythrocytes (human blood erythrocytes; 5 μg/mL) | anti-fungal activity compared with Amphotericin B and S44HP [5] | Haemolysis of erythrocytes, Mean ± S.E.M. (erythrocytes) | Haemolysis of erythrocytes (erythrocytes; [7]) | Haemolysis of erythrocytes, Mean ± SE (erythrocytes) | Haemolysis of erythrocytes (erythrocytes; [8]) | MIC50 [6]
1 | COC(=O)C(CO)NC(=O)C1C(O)CC2(O)CC(O)C(O)CCC(O)CC(O)CC(O)CC(=O)OC(C)C(C)C(O)C(C)C=CC=CC=CC=CC=CC=CC=CC(OC3OC(C)C(O)C(N)C3O)CC1O2 (mixture of isomers) [Compound 14] | 1 µg/mL | 1 µg/mL | 2 µg/mL | 4 µg/mL | 2.5 ± 0.07% | 2.7% and 2.5% (2×) | 4.9 ± 0.2% | 4.8% and 4.5% and 5.3% | comparable anti-fungal activity to Amphotericin B and S44HP | – | – | – | – | –
2 | CC1C=CC=CC=CC=CC=CC=CC=CC(OC2OC(C)C(O)C(N)C2O)CC2OC(O)(CC(O)C(O)CCC(O)CC(O)CC(O)CC(=O)OC(C)C(C)C1O)CC(O)C2C(=O)NCCO (centres unmarked) [Compound 5] | 2 µg/mL (≈ 2.07 µM) | 4 µg/mL (≈ 4.14 µM) | 4 µg/mL (≈ 4.14 µM) | 4 µg/mL (≈ 4.14 µM) | – | – | – | – | – | 1.6 ± 0.2% | 1% and 1.9% and 1.3% and 2% and 1.8% and 2.1% | – | – | –
3 | CNC(=O)C1C(O)CC2(O)CC(O)C(O)CCC(O)CC(O)CC(O)CC(=O)OC(C)C(C)C(O)C(C)C=CC=CC=CC=CC=CC=CC=CC(OC3OC(C)C(O)C(N)C3O)CC1O2 (centres unmarked) [Compound 6] | 2 µg/mL (≈ 2.13 µM) | 2 µg/mL (≈ 2.13 µM) | 4 µg/mL (≈ 4.27 µM) | 4 µg/mL (≈ 4.27 µM) | – | – | – | – | – | 3.7 ± 0.6% | 3.7% and 4.3% and 3.2% and 2% and 2.4% and 3.3% and 7% | – | – | –
4 | CC1C=CC=CC=CC=CC=CC=CC=CC(OC2OC(C)C(O)C(N)C2O)CC2OC(O)(CC(O)C(O)CCC(O)CC(O)CC(O)CC(=O)OC(C)C(C)C1O)CC(O)C2C(N)=O (centres unmarked) [Compound 7] | 2 µg/mL (≈ 2.17 µM) | 1 µg/mL (≈ 1.08 µM) | 2 µg/mL (≈ 2.17 µM) | 8 µg/mL (≈ 8.67 µM) | – | – | – | – | – | 1.5 ± 0.17% | 1.7% and 1.3% and 1.9% (3×) and 1.0% and 0.9% | 5.2 ± 0.2% | 5.8% and 5.0% (2×) | –
5 | COC(=O)C(CO)NC(=O)C1C(O)CC2(O)CC(O)C(O)CCC(O)CC(O)CC(O)CC(=O)OC(C)C(C)C(O)C(C)C=CC=CC=CC=CC=CC=CC=CC(OC3OC(C)C(O)C(N)C3O)CC1O2 (centres unmarked) [Compound 13] | 1 µg/mL (≈ 0.975 µM) | 1 µg/mL (≈ 0.975 µM) | 1 µg/mL (≈ 0.975 µM) | 4 µg/mL (≈ 3.9 µM) | 3.7 ± 0.6% | 3.3% and 3.0% and 4.9% | 14.5 ± 0.5% | 15.5% and 14% and 14.2% | comparable anti-fungal activity to Amphotericin B and S44HP | – | – | – | – | –
6 | CC1C=CC=CC=CC=CC=CC=CC=CC(OC2OC(C)C(O)C(N)C2O)CC2OC(O)(CC(O)C(O)CCC(O)CC(O)CC(O)CC(=O)OC(C)C(C)C1O)CC(O)C2C(=O)N1CCN(CCO)CC1 (centres unmarked) [Compound 15] | 1 µg/mL (≈ 0.965 µM) | 2 µg/mL (≈ 1.93 µM) | 2 µg/mL (≈ 1.93 µM) | 4 µg/mL (≈ 3.86 µM) | – | – | – | – | – | – | – | 2.6 ± 0.1% | 2.8% and 2.4% and 2.7% | 0.20 µg/mL (≈ 0.193 µM)
7 | CC1C=CC=CC=CC=CC=CC=CC=CC(OC2OC(C)C(O)C(N)C2O)CC2OC(O)(CC(O)C(O)CCC(O)CC(O)CC(O)CC(=O)OC(C)C(C)C1O)CC(O)C2C(=O)NC1C(O)OC(CO)C(O)C1O (centres unmarked) [Compound 16] | 1 µg/mL (≈ 0.921 µM) | 1 µg/mL (≈ 0.921 µM) | 2 µg/mL (≈ 1.84 µM) | 8 µg/mL (≈ 7.37 µM) | 2.4 ± 0.12% | 2.3% and 2.2% and 2.6% | 3.1 ± 0.14% | 3.1% and 2.9% and 3.4% | – | – | – | – | – | –
